Data on 46 molecules can be found in patent US20140315933A1, “CHEMICAL COMPOUNDS” (Pfizer Limited, priority 2013, published 2014).

Molecules are shown by their SMILES. Bounds are passed on as bounds.

T1 sequence (Q96S37 with tags, fused parts or gaps): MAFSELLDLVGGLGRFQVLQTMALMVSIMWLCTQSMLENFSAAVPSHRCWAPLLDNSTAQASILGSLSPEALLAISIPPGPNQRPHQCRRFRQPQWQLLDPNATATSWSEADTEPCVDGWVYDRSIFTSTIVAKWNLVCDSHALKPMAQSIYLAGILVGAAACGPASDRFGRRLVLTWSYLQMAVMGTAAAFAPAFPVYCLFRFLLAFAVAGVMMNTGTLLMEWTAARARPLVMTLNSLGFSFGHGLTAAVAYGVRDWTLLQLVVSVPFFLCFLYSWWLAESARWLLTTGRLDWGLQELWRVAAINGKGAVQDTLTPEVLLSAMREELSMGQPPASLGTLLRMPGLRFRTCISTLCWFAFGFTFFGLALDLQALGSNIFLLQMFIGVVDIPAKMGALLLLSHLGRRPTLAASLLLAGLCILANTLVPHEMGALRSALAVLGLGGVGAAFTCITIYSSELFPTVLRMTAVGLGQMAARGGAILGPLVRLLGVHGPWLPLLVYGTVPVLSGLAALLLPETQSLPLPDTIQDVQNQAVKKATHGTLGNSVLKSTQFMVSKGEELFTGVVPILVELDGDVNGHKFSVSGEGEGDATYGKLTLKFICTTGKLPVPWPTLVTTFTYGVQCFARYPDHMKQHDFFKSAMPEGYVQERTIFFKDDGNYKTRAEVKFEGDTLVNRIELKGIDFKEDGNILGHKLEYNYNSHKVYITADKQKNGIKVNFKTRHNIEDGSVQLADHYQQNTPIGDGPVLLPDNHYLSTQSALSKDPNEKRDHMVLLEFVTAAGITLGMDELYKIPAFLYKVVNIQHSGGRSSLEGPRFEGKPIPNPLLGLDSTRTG

The experiment addresses T1, URAT-1 transporter (Homo sapiens, UniProt Q96S37).
T1 construct: expressed in transfected cells
Kind of experiment: URAT-1 inhibitor activity: [14C]-uric acid uptake into CHO-URAT1(L)GFP#8 (CHO#8) cells, scintillation proximity. It is filed as cell-based. Put shortly: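 Scintillation proximity read-out of 30 nM (final) [14C]-uric acid uptake over three hours at room temperature in chloride-free HEPES buffer pH 7.4. Compounds, 0–10 μM final with 0.25% DMSO, were added 15 minutes before substrate; cells were a clonal CHO line with human URAT1(L)-eGFP, preincubated 1 hour in chloride buffer.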
In the case of `COc1ccc(F)c(Oc2ccc(S(=O)(=O)Nc3ncns3)cc2C#N)c1` [compound 287], the IC50 worked out at 1.44 µM. `Cc1c(Oc2ccc(S(=O)(=O)Nc3ncns3)cc2C#N)ccc(F)c1F` [compound 288] yielded an IC50 of 0.431 µM.

Take `COc1cc(F)cc(Oc2ccc(S(=O)(=O)Nc3ncns3)cc2C#N)c1` [compound 289]: it took 0.479 µM to reach half-maximal inhibition (IC50). Turning to `COc1ccc(Oc2ccc(S(=O)(=O)Nc3ncns3)cc2C#N)c(Cl)c1` [compound 290], the IC50 was 1.1 µM.

In the case of `N#Cc1cc(S(=O)(=O)Nc2ncns2)ccc1Oc1cccc(Cl)c1` [compound 291], the half-maximal inhibitory concentration (IC50) amounted to 1.13 µM. As for `COc1cc(C)cc(Oc2ccc(S(=O)(=O)Nc3ncns3)cc2C#N)c1` [compound 292], the IC50 amounted to 1.13 µM. Then `COc1cccc(Oc2ccc(S(=O)(=O)Nc3ncns3)cc2C#N)c1C` [compound 293], with greater than 6.15 µM; and `N#Cc1cc(S(=O)(=O)Nc2ncns2)ccc1Oc1ccc(F)cc1` [compound 294], with 0.888 µM. Then `CC(C)Oc1ccc(F)cc1Oc1cc(F)c(S(=O)(=O)Nc2nncs2)cc1Cl` [compound 295], with 0.478 µM.

The molecule `COc1cc(C#N)ccc1Oc1cc(F)c(S(=O)(=O)Nc2nncs2)cc1Cl` [compound 296] registered a half-inhibitory concentration (IC50) greater than 10 µM. Consider `COc1cc(F)cc(Oc2cc(F)c(S(=O)(=O)Nc3nncs3)cc2Cl)c1` [compound 297], for which half-maximal inhibition (IC50) required 1.01 µM.

With `CC(C)c1ncccc1Oc1cc(F)c(S(=O)(=O)Nc2nncs2)cc1Cl` [compound 298], the IC50 turned out to be 4.39 µM.

For `COc1cc(C)ccc1Oc1cc(F)c(S(=O)(=O)Nc2nncs2)cc1Cl` [compound 299], the half-maximal inhibitory concentration (IC50) amounted to 4.37 µM. The molecule `COc1ccc(C)cc1Oc1cc(F)c(S(=O)(=O)Nc2nncs2)cc1Cl` [compound 300] showed an IC50 of 0.329 µM. In turn, `COc1cc(C)cc(Oc2cc(F)c(S(=O)(=O)Nc3nncs3)cc2Cl)c1` [compound 301] returned a 50% inhibitory concentration (IC50) of 0.382 µM. Then `COc1cc(Cl)cc(Oc2cc(F)c(S(=O)(=O)Nc3nncs3)cc2Cl)c1` [compound 302], with 1.06 µM; and `COc1cccc(Cl)c1Oc1cc(F)c(S(=O)(=O)Nc2nncs2)cc1Cl` [compound 303], with greater than 1.43 µM. As for `CCSc1ncccc1Oc1cc(F)c(S(=O)(=O)Nc2nncs2)cc1Cl` [compound 304], the IC50 was 1.01 µM. In turn, `COc1ccccc1Oc1cc(F)c(S(=O)(=O)Nc2nncs2)cc1Cl` [compound 305] returned an IC50 greater than 5.78 µM. In turn, `COc1cccc(Oc2cc(F)c(S(=O)(=O)Nc3nncs3)cc2Cl)c1` [compound 306] displayed a concentration for half-maximal inhibition (IC50) of 2.41 µM. Then `CCc1ncccc1Oc1cc(F)c(S(=O)(=O)Nc2nncs2)cc1Cl` [compound 307], with greater than 7.19 µM; and `Cc1ccnc(C)c1Oc1cc(F)c(S(=O)(=O)Nc2nncs2)cc1Cl` [compound 308], with greater than 10 µM. The molecule `COc1ccc(C#N)cc1Oc1cc(F)c(S(=O)(=O)Nc2nncs2)cc1Cl` [compound 309] showed an IC50 greater than 10 µM.

Regarding `CSc1ncccc1Oc1cc(F)c(S(=O)(=O)Nc2nncs2)cc1Cl` [compound 310], inhibition was half-maximal at 0.864 µM (IC50).

Regarding `Cc1cncc(Oc2cc(F)c(S(=O)(=O)Nc3nncs3)cc2Cl)c1` [compound 311], the IC50 came out at 1.1 µM. Consider `COc1cc(F)ccc1Oc1cc(F)c(S(=O)(=O)Nc2nncs2)cc1Cl` [compound 312], for which the half-inhibitory concentration (IC50) was greater than 6.45 µM. Take `Cc1ccncc1Oc1cc(F)c(S(=O)(=O)Nc2nncs2)cc1Cl` [compound 313]: the IC50 stood at 3.17 µM. In the case of `Cc1ccc(Oc2cc(F)c(S(=O)(=O)Nc3nncs3)cc2Cl)cc1` [compound 314], the IC50 is greater than 10 µM. The same measure for `COc1ccc(F)c(Oc2cc(F)c(S(=O)(=O)Nc3nncs3)cc2Cl)c1` [compound 315]: 2.19 µM; for `COc1cc(C#N)c(F)cc1Oc1cc(F)c(S(=O)(=O)Nc2nncs2)cc1Cl` [compound 316]: greater than 10 µM; for `COc1ccc(Oc2cc(F)c(S(=O)(=O)Nc3nncs3)cc2Cl)c(Cl)c1` [compound 317]: 1.63 µM. The same measure for `Cc1c(Oc2cc(F)c(S(=O)(=O)Nc3nncs3)cc2Cl)ccc(F)c1F` [compound 318, 5-chloro-4-(3,4-difluoro-2-methylphenoxy)-2-fluoro-N-(1,3,4-thiadiazol-2-yl)benzenesulfonamide]: 0.145 µM; for `COc1c(Oc2cc(F)c(S(=O)(=O)Nc3nncs3)cc2Cl)ccc(F)c1C` [compound 319]: greater than 1.71 µM; for `COc1ccc(Oc2cc(F)c(S(=O)(=O)Nc3nncs3)cc2Cl)cc1Cl` [compound 320]: greater than 7.61 µM.

`COc1cccc(C)c1Oc1cc(F)c(S(=O)(=O)Nc2nncs2)cc1Cl` [compound 321] gave an IC50 of 0.275 µM. Consider `Cc1cc(Oc2cc(F)c(S(=O)(=O)Nc3nncs3)cc2Cl)ccc1F` [compound 322], for which the IC50 amounted to 2.99 µM. As to `COc1cccc(Oc2cc(F)c(S(=O)(=O)Nc3nncs3)cc2Cl)c1C` [compound 323], the concentration for half-maximal inhibition (IC50) came out at 2.17 µM. For the molecule `COc1ccc(Oc2cc(F)c(S(=O)(=O)Nc3nncs3)cc2Cl)cc1F` [compound 324], the IC50 is 3.28 µM. Regarding `CC(C)Oc1ccccc1Oc1cc(F)c(S(=O)(=O)Nc2nncs2)cc1Cl` [compound 325], the concentration for half-maximal inhibition (IC50) amounted to 2 µM.

Take `COc1ccc(Cl)c(Oc2cc(F)c(S(=O)(=O)Nc3nncs3)cc2Cl)c1` [compound 326]: the half-maximal inhibitory concentration (IC50) stood at 0.369 µM. The same measure for `COc1ccc(C)c(Oc2cc(F)c(S(=O)(=O)Nc3nncs3)cc2Cl)c1` [compound 327]: 0.619 µM; for `Cc1ccccc1Oc1cc(F)c(S(=O)(=O)Nc2nncs2)cc1Cl` [compound 328]: greater than 0.83 µM. In the case of `COc1c(F)ccc(Oc2cc(F)c(S(=O)(=O)Nc3nncs3)cc2Cl)c1Cl` [compound 329], half-maximal inhibition (IC50) was put at 0.606 µM. Then `O=S(=O)(Nc1nncs1)c1cc(Cl)c(Oc2cccc(Cl)c2)cc1F` [compound 330], with 2.39 µM; and `CCOc1cc(C)ccc1Oc1cc(F)c(S(=O)(=O)Nc2nncs2)cc1Cl` [compound 331], with greater than 6.72 µM. The same measure for `O=S(=O)(Nc1nncs1)c1cc(Cl)c(Oc2c(F)cccc2Cl)cc1F` [compound 332]: greater than 2.38 µM.
